Reference: patent US20050107289A1, “Anti-microbial peptides and compositions” (priority 2001, published 2005)
Non-standard residues stand in square brackets, D forms with d. Residues, ends and D or L forms follow the SMILES beside them. NMeL = CN[C@@H](CC(C)C)C(=O)O

How the values were obtained:
[1] = tested on: E. coli JM109(DE3); assay type: cell-based, Escherichia coli; details: JM109
Method: (§1) The antimicrobial activity of the peptides was determined using a broth dilution assay essentially as descried in the guidelines of the National Committee for […] (NCCLS) [National Committee for Clinical Laboratory Standards. Methods for dilution antimicrobial susceptibility tests for bacteria that grow aerobically. Fourth edition. Approved Standard (1997). Document M7-A4. […] The microdilution method has the advantages of requiring less amount of peptide for each assay and the possibility of multiple simultaneous inoculations and was used in most studies. Several of the strains of bacteria tested are further described in Table 3.
(§2) Preparation of peptide solutions. Stock peptide solutions were prepared in 5% DMSO in aq. sucrose (9%). Determination of peptide concentrations was done by quantitative HPLC analysis using known concentrations of internal standards and/or by measuring UV absorption of tryptophane-containing peptide solutions in H2O (λ=280 εTrp: 5690). Serial 2-fold dilutions were made in the above DMSO/aq. sucrose (9%) mixture with concentrations ranging approximately 400-2 μg/ml and aliquots were dispensed in test tubes (100 μl) for the macrodilution test or in microtiter plates (20 μl) for the microdilution assays.
(§3) Inoculum preparation. Overnight cultures of different microorganisms grown in suitable media were diluted 4000 times to an approximate inoculum size of 2.5×10^5 cfu/ml.
(§4) Macrodilution method. Macrodilution methods were performed using procedures similar to those described in the National Committee for Clinical Laboratory Standards. Methods for dilution antimicrobial susceptibility tests for bacteria that grow aerobically. Fourth edition. Approved Standard (1997). Document M7-A4. (NCCLS,Villanova, Pa., 1997). Two ml aliquots of the above inoculum were dispensed to test tubes containing different peptide solutions.
(§5) Microdilution method. Microdilution methods were performed using procedures similar to those described in the National Committee for Clinical Laboratory Standards. Methods for dilution antimicrobial susceptibility tests for bacteria that grow aerobically. Fourth edition. Approved Standard (1997). Document M7-A4.

[2] = tested on: S. aureus (MRSA) ATCC 33591; assay type: cell-based, Staphylococcus aureus; details: for MRSA MIC / S. aureus (MRSA) MIC: ATCC 33591; for MRSA (in vitro activity): Table 9, media a: anti-microbial media-3 (AM-3)
Method in brief: (§6)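 MICs come from NCCLS-style (M7-A4) dilution testing, mostly microdilution, with an inoculum near 2.5×10^5 cfu/ml from 4000-fold-diluted overnight cultures. Peptide series were 2-fold steps spanning roughly 400–2 μg/ml, prepared in 9% aqueous sucrose with 5% DMSO.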

[3] = tested on: vancomycin-resistant Enterococus faecalis (VRE)(ATCC 51575); assay type: cell-based, Enterococcus faecalis; parameters: key to VRE (in vitro activity): peptide concentration in μg/ml (broth dilution assay); details: for VRE MIC: ATCC 51575; for VRE (in vitro activity): Table 9, media a: AM-3
Method in brief: as §6

[4] = tested on: Streptococcus pneumoniae (ATCC 6301); assay type: cell-based
Method: as §1, §2, §3, §4, §5

[5] = tested on: Bacillus cereus ATCC 11778; assay type: cell-based
Method: as §1, §2, §3, §4, §5

[6] = tested on: murine red blood cells; assay: Red blood cell hemolysis; assay type: cell-based, mouse; details: for Hemolysis HD50: red cells of murine
Method in brief: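 Hemolysis read as A560 of supernatant, scaled between saline (0%) and 1% Triton X-100 (100%) controls; peptides were serially diluted onto 5% murine red cells in saline plus 10% FBS and incubated 30 min at 37° C.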

Compound	E. coli MIC [1] [µg/mL]	MRSA MIC [2] [µg/mL]	S. aureus (MRSA) MIC [2] [µg/mL]	VRE MIC [3] [µg/mL]	S. pneum. MIC [4] [µg/mL]	B. cerius MIC [5] [µg/mL]	MRSA (in vitro activity) [2]	RBC Hemolysis (HD50) [6]	VRE (in vitro activity) [3]	Hemolysis HD50 [6] [µg/mL]
CC(C)C[C@H]1NC(=O)[C@H](Cc2c[nH]c3ccccc23)NC(=O)[C@@H](CCCCN)NC(=O)[C@H](CCC(N)=O)NC(=O)[C@@H](CCCCN)NC(=O)[C@H](Cc2c[nH]c3ccccc23)NC(=O)[C@@H](CC(C)C)NC(=O)[C@H](Cc2c[nH]c3ccccc23)NC1=O [SEQ ID NO:11, cyclo-[Gln-D-Lys-(Trp-D-Leu)2-Trp-D-Lys-]] (cyclo([dK]Q[dK]W[dL]W[dL]W))	100	20	45	20	8	7	–	–	–	–
CC(C)C[C@H]1NC(=O)[C@H](Cc2c[nH]c3ccccc23)NC(=O)[C@@H](CCCNC(=N)N)NC(=O)[C@H](CCC(N)=O)NC(=O)[C@@H](CCCNC(=N)N)NC(=O)[C@H](Cc2c[nH]c3ccccc23)NC(=O)[C@@H](CC(C)C)NC(=O)[C@H](Cc2c[nH]c3ccccc23)NC1=O [SEQ ID NO:10, RQRWLWLW] (cyclo([dR]Q[dR]W[dL]W[dL]W))	–	10	18	10	4	< 1	10	25	10	–
CC(C)C[C@H]1NC(=O)[C@H](Cc2c[nH]c3ccccc23)NC(=O)[C@@H](CCCCN)NC(=O)[C@H](CCCNC(=N)N)NC(=O)[C@@H](CCCNC(=N)N)NC(=O)[C@H](Cc2c[nH]c3ccccc23)NC(=O)[C@@H](CC(C)C)NC(=O)[C@H](CO)NC1=O [SEQ ID NO:112, [RRKWLSLW]] (cyclo([dR]R[dK]W[dL]S[dL]W))	12	12	–	50	12	13	12	100	50	100
CC(C)C[C@@H]1NC(=O)[C@@H](Cc2c[nH]c3ccccc23)NC(=O)[C@H](CCCNC(=N)N)NC(=O)[C@@H](CCCNC(=N)N)NC(=O)[C@H](CCCNC(=N)N)NC(=O)[C@@H](Cc2c[nH]c3ccccc23)NC(=O)[C@H](CC(C)C)NC(=O)[C@@H](Cc2c[nH]c3ccccc23)NC1=O [SEQ ID NO:133, [RRRWLWLW]] (cyclo(R[dR]R[dW]L[dW]L[dW]))	35	10	–	–	5	10	–	–	–	35
CC(C)C[C@@H](NC(=O)[C@H](Cc1c[nH]c2ccccc12)NC(=O)[C@@H](CC(C)C)NC(=O)[C@H](Cc1c[nH]c2ccccc12)NC(=O)[C@@H](CCCCN)NC(=O)[C@H](CCCCN)NC(=O)[C@@H](CCCCN)NC(=O)[C@@H](N)Cc1c[nH]c2ccccc12)C(=O)O [SEQ ID NO:144, H-WKKKWLWL-OH] (H-W[dK]K[dK]W[dL]W[dL]-OH)	–	60	–	100	100	340	–	–	–	–
CC(C)C[C@H]1NC(=O)[C@H](Cc2c[nH]c3ccccc23)NC(=O)[C@@H](Cc2c[nH]cn2)NC(=O)[C@H](CCCCN)NC(=O)[C@@H](Cc2c[nH]cn2)NC(=O)[C@H](Cc2c[nH]c3ccccc23)NC(=O)[C@@H](CC(C)C)NC(=O)[C@H](Cc2c[nH]c3ccccc23)NC1=O [SEQ ID NO:21, cyclo-(D-His-Lys-D-His-Trp-D-Leu-Trp-D-Leu-Trp)] (cyclo(K[dH]W[dL]W[dL]W[dH]))	15	12	12	16	19	4	12	25	16	–
CC(C)C[C@H]1NC(=O)[C@H](CCC(=O)O)NC(=O)[C@@H](CCCCN)NC(=O)[C@H](Cc2c[nH]c3ccccc23)NC(=O)[C@@H](CC(C)C)NC(=O)[C@H](Cc2c[nH]c3ccccc23)NC(=O)[C@@H](CC(C)C)NC(=O)[C@H](Cc2c[nH]c3ccccc23)NC1=O [SEQ ID NO:143, [KELWLWLW]] (cyclo([dK]E[dL]W[dL]W[dL]W))	–	100	–	100	100	> 140	–	–	–	–
CC(C)C[C@H]1NC(=O)[C@H](Cc2c[nH]c3ccccc23)NC(=O)[C@@H](Cc2c[nH]cn2)NC(=O)[C@H](Cc2c[nH]cn2)NC(=O)[C@@H](CO)NC(=O)[C@H](Cc2c[nH]c3ccccc23)NC(=O)[C@@H](CC(C)C)NC(=O)[C@H](Cc2c[nH]c3ccccc23)NC1=O [SEQ ID NO:15, SHHWLWLW] (cyclo([dS]H[dH]W[dL]W[dL]W))	100	30	20	50	40	11	30	20	50	–
CC(=O)N[C@H](CC(C)C)C(=O)N[C@@H](Cc1c[nH]c2ccccc12)C(=O)N[C@H](CCCNC(=N)N)C(=O)N[C@@H](CCCNC(=N)N)C(=O)N[C@H](CCCCN)C(=O)N[C@@H](Cc1c[nH]c2ccccc12)C(=O)N[C@H](CC(C)C)C(=O)N[C@@H](Cc1c[nH]c2ccccc12)C(N)=O [SEQ ID NO:138, Ac-LWRRKWLW-NH2] (Ac-[dL]W[dR]R[dK]W[dL]W-NH2)	7	15	–	100	20	20	–	–	–	100
CC(C)C[C@H]1NC(=O)[C@H](Cc2c[nH]c3ccccc23)NC(=O)[C@@H](CCCCN)NC(=O)[C@H](Cc2c[nH]cn2)NC(=O)[C@@H](CCCCN)NC(=O)[C@H](Cc2c[nH]c3ccccc23)NC(=O)[C@@H](CC(C)C)NC(=O)[C@H](Cc2c[nH]c3ccccc23)NC1=O [SEQ ID NO:22, KHKWLWLW] (cyclo([dK]H[dK]W[dL]W[dL]W))	80	10	10	10	8	8	10	30	10	–
CC(C)C[C@H]1C(=O)N[C@H](Cc2c[nH]c3ccccc23)C(=O)N(C)[C@@H](CC(C)C)C(=O)N[C@H](Cc2c[nH]c3ccccc23)C(=O)N[C@@H](CCCCN)C(=O)N[C@H](CCC(N)=O)C(=O)N[C@@H](CCCNC(=N)N)C(=O)N[C@H](Cc2c[nH]c3ccccc23)C(=O)N1C [SEQ ID NO:140, c[KQRW^MeLW^MeLW]] (cyclo(K[dQ]R[dW][NMeL][dW][NMeL][dW]))	–	10	–	100	10	8	–	–	–	–
CC(C)C[C@H]1NC(=O)[C@H](Cc2c[nH]c3ccccc23)NC(=O)[C@@H](CCCNC(=N)N)NC(=O)[C@H](CCCNC(=N)N)NC(=O)[C@@H](CCCNC(=N)N)NC(=O)[C@H](Cc2c[nH]c3ccccc23)NC(=O)[C@@H](CC(C)C)NC(=O)[C@H](Cc2c[nH]c3ccccc23)NC1=O [SEQ ID NO:20, RRRWLWLW] (cyclo([dR]R[dR]W[dL]W[dL]W))	50	–	10	–	–	–	–	–	–	35
CC(C)C[C@H]1NC(=O)[C@H](CCCCN)NC(=O)[C@@H](CCCNC(=N)N)NC(=O)[C@H](Cc2c[nH]c3ccccc23)NC(=O)[C@@H](CC(C)C)NC(=O)[C@H](Cc2c[nH]c3ccccc23)NC1=O [SEQ ID NO:141, [RKLWLW]] (cyclo([dR]K[dL]W[dL]W))	–	25	–	25	20	13	–	–	–	–
CC(C)C[C@H]1NC(=O)[C@H](Cc2c[nH]c3ccccc23)NC(=O)[C@@H](Cc2c[nH]cn2)NC(=O)[C@H](CCCCN)NC(=O)[C@@H](CO)NC(=O)[C@H](Cc2c[nH]c3ccccc23)NC(=O)[C@@H](CC(C)C)NC(=O)[C@H](Cc2c[nH]c3ccccc23)NC1=O [SEQ ID NO:14, cyclo-(D-Ser-Lys-D-His-Trp-D-Leu-Trp-D-Leu-Trp)] (cyclo(K[dH]W[dL]W[dL]W[dS]))	100	15	15	30	–	6	15	20	30	–
